Source: patent US11932850B2, “Cancer chemoprevention with STAT3 blockers” (Jill M. Siegfried, LLC, priority 2018, dated 2024)
“And” between values parts separate entries of the source, which are not always exact repeats. Equal entries are not always repeated. “Also recorded” adds a separate entry of the source.

Experiments:
[1] = system: c-Myc in 201T-derived tumors; assay: c-Myc expression in 201T xenograft tumors (Western blot, RT-qPCR); assay type: in vivo, nude mice
[2] = system: Myc and Bcl-xL mRNA in NSCLC cells; conditions: 300 nM one transfection, 10 ng/ml EGF, 1 hr after EGF
[3] = system: H3225 cells; assay: MTS cell viability assay, H3225; assay type: cell-based, human
[4] = system: normal lung fibroblasts
[5] = system: c-Myc mRNA in H1975 cells; assay: RT-qPCR of c-Myc mRNA after EGF, H1975; assay type: cell-based, human; conditions: single transfection, EGF 10 ng/ml 1.5 hr
[6] = system: NNK-induced lung preneoplasias and tumors; assay: NNK-induced lung tumor model for chemoprevention, second experiment; assay type: in vivo, mice
Procedure: To confirm these findings, in a second experiment, in which 24 mg NNK was given (3 mg by ip injection, twice a wk, ×4 wks,), this was followed by one week rest and then immediate treatment with 5 mg/kg CS3D or CS3M, 3 daily injections per week, for 8 weeks. Then 1 week, 8 weeks, or 20 weeks after the end of the treatment course ([…], 21, and 33 weeks after beginning the NNK exposure), necropsy was performed. […] Lung tumors were evaluated by inspecting formalin-fixed lungs visually and by histology after H & E staining. […] Tumor burden (detected by neoplastic growths [adenomas] observed in lung sections) was also assessed at the week 1 timepoint after treatment. Consistent with reduction in preneoplasia, we observed a decrease in the average number of tumors (a 60% reduction in tumors in the CS3D-treated animal) (FIG. 14A).
The chemopreventive effect of CS3D compared to CS3M on lung tumor development was studied in an NNK-induced immunocompetent lung tumor model using the tobacco carcinogen, 4-(methylnitrosamino)-1-(3-pyridyl)-1-butanone, CAS Reg. No. 64091-91-4 (NNK) in mice. The advantages of this model are: NNK is an inducer of KRAS mutations, it is known to induce lung cancers in mice and humans, and the model is immunocompetent. In addition, this is a useful model for studying chemoprevention after exposure to a carcinogenic agent (Hecht S S, et al, Cancer Res. (1980) 40(2):298-302).
After four weeks of NNK exposure, mice are then dosed IV 2 times per week with CS3D or CS3M (5 mg/kg) for eight weeks. The mice are sacrificed after at one week, 8 weeks, and 20 weeks after the end of oligonucleotide dosing to examine lungs. Lungs are formalin-inflated and surface tumors are enumerated visually under a dissecting microscope. The area of each tumor is measured with a analysis tool built in the imaging software LAS v4.7 (Leica). Lungs are also sectioned and examined histologically by hematoxylin and eosin staining for counting the preneoplasia and tumors.

[7] = system: M1 macrophages, M2 macrophages, MDSCs; assay: Flow cytometry of immune cells isolated from lungs of NNK mice; assay type: in vivo
Text: STAT3 also plays a central role in immune evasion. STAT3 specifically orchestrates immunosuppression by promoting M2 macrophage and myeloid-derived suppressor cells (MDSCs) activity while suppressing M1 macrophage function [Su et al. Int. J. Mol. Science 19: pll:E1803, 2018]. Thus STAT3 inhibition by CS3D should favor an antitumor immune response by enhancing M1 macrophage activity.
Lungs from mice were digested with RPMI media containing collagenase and DNase to obtained single cell suspension. The cells were counted and 1×10^6 cells were staining with fluorescent labeled CD45, CD11b, MHC II, Ly6C and F4/80. The labeled cells were gated and data acquired on LSR fortessa (BD Biosciences) and further analysed by Flowjo.

[8] = system: 201T xenografts; assay: 201T NSCLC xenograft tumor growth; assay type: in vivo, nude mice
Procedure: Based on the in vitro effects of CS3D, antitumor effects were evaluated in mice harboring established NSCLC xenografts (10 tumors/group). When tumors reached 200 mm3, mice were given daily intravenous injections (tail vein) of CS3D or CS3M (5 mg/kg/d), 5 days per week, and tumor growth was monitored for 14-20 days. CS3D caused a significant and robust tumor growth inhibition in 201T- and H1975-derived xenografts compared to treatment with CS3M.
FIGS. 7A and 7B show CS3D suppresses NSCLC xenograft tumor growth. Intravenous delivery of CS3D inhibits tumor growth in both wild-type (FIG. 7A, 201T) and mutant EGFR T790M (FIG. 7B, H1975) xenografts. Approximately 1×10^6 cells were inoculated subcutaneously in the flanks of nude mice. Following the development of palpable tumors (about […]), mice were randomized and given daily injections of either CS3D or CS3M (5 mg/kg/day; 10 tumors/group). Experiments were done twice as biological replicates. Tumor volumes were recorded every other day while animal weights were also monitored during the course of the treatment. […]
All studies were approved by the University of Minnesota Institutional Animal Care and Use Committee and were carried out in accordance with institutional guidelines for animal care. […] Volumes were calculated from the formula V=(Length×Width^2)/2. […]

[9] = NNK 4 weeks then 1 week of drug administration

## CS3D (DNA GATTTACGGGAAATGCSCATTTCCC; cyclic decoy with two hexaethylene glycol linkers, further chemistry not given here)
[1]; 201T xenografts, CS3D vs CS3M
  mean decrease of c-Myc protein: 70%
[1]; tumor lysates of 201T and H1975 xenografts (FIG. 7E), compared to CS3M
  reduction of c-Myc gene expression (mRNA) relative to GAPDH: 60-70%
[2]
  reduction of Bcl-Xl mRNA expression in response to EGF: ≥ 60%
  reduction of c-Myc mRNA expression in response to EGF: ≥ 60%
[3]
  IC50: 300 nM
[4]
  toxicity in normal cells: minimal
[4]; fold higher than in NSCLC cell lines
  IC50 in normal lung fibroblasts and bronchial epithelial cells relative to tumor cells: 100 fold
[5]
  inhibition in mRNA level of c-Myc: 25-30%
[6]; 5 mg/kg for 8 weeks
  toxicity (body weight, behavior, liver and spleen): no body weight changes were observed; also recorded: no toxicity observed
[6]; 8 weeks after treatment ended, vs CS3M
  higher count of preneoplasia: 43%
[6]; 8 weeks post-treatment, vs CS3M
  lower number of adenomas: 52%
[6]; 20 weeks after end of treatment, vs CS3M
  reduction in average number of tumors per animal: approximately 40% and 42%
[6]; 20 weeks post-treatment, vs CS3M
  lower tumor size: 49.8% and 50%
[6]; week 1 after 8 week treatment, 5 mg/kg, vs CS3M
  fewer preneoplasias on average per animal: approximately 25%
[6]; week 1 after 8 week treatment, vs CS3M
  reduction in average number of tumors: 60%
[7]; [9]
  M2 macrophages: 5.53%
  MDSCs: 14.2%
[7]; NNK 4 weeks then 1 week of drug, vs CS3M
  proportion of M1 macrophages in the lung TME: increasing
[8]; 201T xenograft, 5 mg/kg/d iv, 5 days per week, compared to CS3M
  reduction in tumor growth (tumor volume): 96.5%
[8]; both KRAS WT cell lines (201T and H1975), as reported (Njatcha et al 2017)
  tumor growth inhibition at 14 days: over 85%
